# Read-outs that look alike come from different tables or passages of the source.
# Key:
# [1] = negative = satisfies at least one of (1) LLNA SI less than 3, (2) MSDS, (3) reference; cited from earlier work
# [2] = test method: maximization method; cited from earlier work
# [3] = cited from earlier work
# Female mice = experiment: Skin sensitization test by LLNA (Local Lymph Node Assay) method, SI value; assay type: in vivo; conditions: test substance 50.0 w/v % in acetone:olive oil 4:1, 25 μL/auricle, once/day × 3 days, SI less than 3 = negative
# Experimental: In the (1), it is judged that a compound is negative in skin sensitization when the SI value of the compound is less than 3, as described in the journal of “Function and Materials”, September, 2005, volume 25, No. 9, on page 55. The lower the SI value is, the lower skin sensitization is.
# The SI value was measured by a skin sensitization test by LLNA (Local Lymph Node Assay) method as described below.
# α-Hexyl cinnamaldehyde (HCA, available from Wako Pure Chemical Industries, Ltd.) was used as the positive control substance.
# A mixture liquid obtained by mixing acetone (available from Wako Pure Chemical Industries, Ltd.) and an olive oil (available from Fujimi Pharmaceutical Co., Ltd.) at a volume ratio (acetone:olive oil) of 4:1 was used as the medium. […]
# Based on the body weights of the animals measured two days before sensitization was started, the animals were divided into two groups (4 mice/group) in a manner that the body weight of each individual would be within ±20% of the average body weight of the whole group according to a body weight stratified random sampling method. […]
# About twenty four hours after the BrdU administration, the animals were euthanized, and the auricular lymph nodes were extracted. […] The average value and standard error of the weight of the auricular lymph nodes per group were calculated. […]
# [4] = test method: OECD Test Guideline 406; cited from earlier work
compound,measurement,setting,value
CCC(Cc1ccc(C)cc1)(C(=O)c1ccc(N2CCOCC2)cc1)N(C)C (stereo not shown) [2-dimethylamino-2-(4-methylbenzyl)-1-(4-morpholin-4-yl-phenyl)butan-1-one],Skin sensitization,[1],negative
"C=C(C)C(=O)OC(C)(C)C [Example A2, t-butyl methacrylate]",Skin sensitization evaluated according to the reference,[2],negative
same,Skin sensitization,[1],negative
same,Vapor pressure,[3]; 18.5° C.,700 Pa
"C=C(C)C(=O)OCCCCC [Example A3, n-Pentyl methacrylate]",Skin sensitization evaluated according to the reference,[2],negative
same,Skin sensitization,[1],negative
same,Vapor pressure,[3]; 25° C.,69.1 Pa
"C=C(C)C(=O)OCCCCCC [Example A4, n-Hexyl methacrylate]",Skin sensitization evaluated according to the reference,[2],negative
same,Skin sensitization,[1],negative
same,Vapor pressure,[3]; 20° C.,34.7 Pa
"C=C(C)C(=O)OCC(CO)OC(=O)C(=C)C (stereo not shown) [Example B2, Glycerol dimethacrylate]",SI value (Stimulation Index) measured by LLNA test,Female mice,1.2
same,Skin sensitization,[1],negative
"C=C(C)C(=O)OCC(CC)(COC(=O)C(=C)C)COC(=O)C(=C)C [Example B6, Trimethylolpropane trimethacrylate]",SI value (Stimulation Index) measured by LLNA test,Female mice,1.9
"O=C(c1ccccc1)C1(O)CCCCC1 [Example C1, 1-Hydroxy-cyclohexyl phenyl ketone]",Skin sensitization,[1],negative
same,Skin sensitization evaluated according to the MSDS,[4],nothing
"CCC(Cc1ccc(C)cc1)(C(=O)c1ccc(N2CCOCC2)cc1)N(C)C (stereo not shown) [Example C2, 2-Dimethylamino-2-(4-methylbenzyl)-1-(4-morpholin-4-yl-phenyl)butan-1-one]",Skin sensitization evaluated according to the MSDS,[4],nothing
"CSc1ccc(C(=O)C(C)(C)N2CCOCC2)cc1 [Example C3, 2-[4-(Methylthio)benzoyl]-2-(4-morpholinyl)propane]",Skin sensitization evaluated according to the MSDS,[4],nothing
"C=CC(=O)OCc1ccccc1 [benzyl acrylate, reference compound]",Skin sensitization,[1],positive
same,Vapor pressure,[3]; 25° C.,9.7 Pa
Caprolactone-modified dipentaerythritolhexaacrylate [Example B5],Skin sensitization,[1],negative
polyethylene glycol dimethacrylate,Skin sensitization,[1],negative
tricyclodecane dimethanol dimethacrylate,Skin sensitization,[1],negative

# From patent US10414150B2, “Active-energy-ray-curable composition, composition stored container, two-dimensional or three-dimensional image forming apparatus, method for forming two-dimensional or three-dimensional image, and cured product” (Ricoh Company, Ltd., priority 2015, dated 2019)
